Entries after “also recorded” stand apart in the source; their conditions may differ. Residues, ends and D or L forms follow the SMILES beside them. *: point of attachment. Cbz = O=C(OCc1ccccc1)*; CH2F = FC*
Legend:
[1] = tested on: mitochondria isolated from SHEP cells; assay: Mitochondrial membrane potential of isolated mitochondria (DiOC6(3)); assay type: biochemical, human; settings: FIG. 7, 12D; for effect of inhibitor on betulinic acid-induced Δψm loss in isolated mitochondria: 50 μM bongkrekic acid or 60 μM zVAD-fmk
Experimental: For isolation of mitochondria, cells (3×10^5 per sample) were washed twice with ice-cold PBS and resuspended with five volumes of buffer A (50 mM Tris, 1 mM EGTA, 5 mM 2-mercaproethanol, 0.2% BSA, 10 mM KH2PO4, pH 7.6, 0.4 M sucrose) and allowed to swell on ice for 20 min. Cells were homogenized with 30 strokes of a Teflon homogenizer and centrifuged at 10000 g for 10 min at 4° C. The resulting pellets were resuspended in buffer B (10 mM KH2PO4, pH 7.2, […] mannitol, 0.1% BSA). Mitochondria were separated by sucrose gradient (lower layer: 1.6 M sucrose, 10 mM KH2PO4, pH 7.5, 0.1% BSA; upper layer: 1.2 M sucrose, 10 mM KH2PO4, pH 7.5, 0.1% BSA). Interphases containing mitochondria were washed with buffer B at 18000 g for 10 min at 4° C. and the resulting mitochondrial pellets were resuspended in buffer B. For preparation of cytosolic extracts, cells (1×10^8 per sample) were washed twice with ice-cold PBS, resuspended with one volume of buffer A and allowed to swell on ice for 20 min. Cells were homogenized with 30 strokes of a Dounce homogenizer and centrifuged at 15000×g for 15 min ax 4° C. The protein concentration of mitochondria or cytosolic extracts was determined by Bradford method (Bio-Rad). For isolation of nuclei, cells were washed twice in ice-cold PBS, resuspended in 10 volumes of buffer C (10 mM PIPES, pH 7.4, 10 mM KCl, 2 mM MgCl2, 1 mM DDT, 1 mM PMSF, 10 μM cytochalasin B), allowed to swell on ice for 20 min and homogenized using a Teflon homogenizer. Homogenates were layered over 30% sucrose in buffer C and centrifuged at 800 g for 10 min. The resulting nuclear pellets were resuspended in buffer C and washed three times. Nuclei were scored at −80° C. in aliquots of 10^8 nuclei/ml until required. AIF-containing mitochondrial supernatant was prepared as described in Susin et aL, 1997, J. Exp. Med. 186, 5-37 and Susin et al., 1996, J. Exp. Med. 184, 1331-41.
Mitochondria (5×10^5/ml) were treated with 10 μg/ml betulinic acid for 30 min, incubated with 3,3′-dihexyloxacarbocyanide iodide (DiOC6(3), 40 nM, Molecular Probes, Inc., Eugene, Oreg.) for 15 min at 37° C. and analyzed on a flow cytometer (FACS Vantage, Becton Dickinson). As a control, cells were treated with the uncoupling agent carbonyl cyanide m-chlorophenylhydrazone (mCICCP, 200 μM, Sigma).

[2] = tested on: FLICE, CPP32 and PARP in SH-EP neuroblastoma cells; assay: Western blot of FLICE (caspase-8), CPP32 (caspase-3) and PARP cleavage; assay type: cell-based, human
Experimental: Cells were lysed for 30 min at 4° C. in PBS with 0.5% Triton X (Serva, Heidelberg, Germany) and 1 mM phenylmethylsulfonyl fluoride (Sigma, Deisenhofen, Germany) followed by high-speed centrifugation. Membrane proteins were eluted in buffer containing 0.1 M glycine. PH 3.0 and 1.5 M Tris, pH 8.8. Protein concentration was assayed using bicinchoninic acid (Pierce Chemical Co., Rockford, Ill.). Forty μg of protein per lane were separated by 12% SDS-PAGE and electroblotted onto nitrocellulose (Amersham, Braunschweig, Germany). Equal protein loading was controlled by Ponceau red staining of membranes. After blocking for 1 h in PBS supplemented with 2% BSA (Sigma) and 0.1% Tween 20 (Sigma), immunodetection of FLICE, CPP32, PARP, Bax, Bcl-x, Bcl-2, and p53 protein was done using mouse anti-FLICE monoclonal antibody C15 (1:5 dilution of hybridoma supernatant), mouse anti-CPP32 monoclonal antibody (1:1000, Transduction Laboratories, Lexington, KY), rabbit anti-PARP polyclonal antibody (1:10000, Enzyme Systems Products), rabbit anti-Bax polyclonal antibody (1:500, Calbiochem, Bad Soden, Germany), rabbit anti-Bcl-x polyclonal antibody (1:1000, Santa Cruz Biotechnology, Santa Cruz, Calif.), mouse anti-p53 monoclonal antibody (1:10000, Transduction Laboratories), and goat anti-mouse 1gG or goat antirabbit IgG (1:5000, Santa Cruz Biotechnology), ECL (Amersham) was used for detection.
FIG. 2B and FIG. 2C show the cleavage of FLICE, CPP32 and PARP. SH-EP neuroblastoma cells were treated with 10 μg/ml betulinic acid for indicated times or with 0.5 μg/ml doxorubicin for 24 h. Forty μg of protein per lane, isolated from cell lysates, were separated by 12% SDS-PAGE, Immunodetection of FLICE (FIG. 2B). CPP32 (FIG. 2C), and PARP (C) proteins was performed by mouse anti-FLICE monoclonal antibody, mouse anti-CPP32 monoclonal antibody, or rabbit anti-PARP polyclonal antibody and ECL.
SH-EP neuroblastoma cells were treated with 10 μg/ml betulinic acid for 24 h with or without 60 μM zVAD-frnk. Western blot analysis for FLICE and PARP cleavage was performed as described for FIG. 2B.
Cells were lysed for 30 mm at 4° C. in PBS with 0.5% Triton X (Serva, Heidelberg, Germany) and 1 mM PMSF (Sigma, Deisenhofen, Germany) followed by high-speed centrifugation. Membrane proteins were eluted in buffer containing 0.1 M glycine, pH 3.0 and 1.5 M Tris, pH 8.8. Protein concentration was assayed using bicinchoninic acid (Pierce, Rockford, Ill.). 40 μg protein per lane was separated by 12% or 15% SDS-PAGE and electroblotted onto nitrocellulose (Amersham, Braunschweig, Germany). Equal protein loading was controlled by Ponceau red staining of membranes. […]
For determination of mitochondrial membrane potential, cells (5×10^5/ml) were incubated with 3,3′-dihexyloxacarbocyanide iodide (DiOC6(3), 40 nM, Molecular Probes, Inc., Eugene, Oreg.) for 15 min at 37° C. and analyzed on a flow cytometer (FACScan) (Zamzarni et al., 1996 J. Exp. Med. 183:1533-44). […]

[3] = 0.5 μg/ml Doxo or 10 μg/ml Bet A, 24 h, FIG. 14A

What does the source list for COC(=O)C[C@H](NC(=O)[C@H](C)NC(=O)[C@@H](NC(=O)OCc1ccccc1)C(C)C)C(=O)CF [zVAD-fmk, benzyloxycarbonyl-Val-Ala-Asp-Fluoromethylketone] (Cbz-Val-Ala-Asp(OMe)-CH2F)?
effect of inhibitor on betulinic acid-induced Δψm loss in isolated mitochondria [1]: did not interfere; also recorded: not blocked; effect of inhibitor on betulinic acid-induced cleavage of FLICE and PARP ([2]; 60 μM zVAD-fmk, 10 μg/ml betulinic acid 24 h, FIG. 2E): inhibited cleavage of FLICE and PARP

Which results are given for COc1cccc2c1C(=O)c1c(O)c3c(c(O)c1C2=O)C[C@@](O)(C(=O)CO)C[C@@H]3O[C@H]1C[C@H](N)[C@H](O)[C@H](C)O1 [doxorubicin]?
Δψm of isolated mitochondria ([1]; mitochondria from wild type or vector-only SHEP cells, 10 μg/ml betulinic acid, 30 min): did not induce mitochondrial perturbations; caspase-3 (and PARP) processing in Bcl-2 or Bcl-XL overexpressing cells [2, 3]: inhibited in Bcl-2 and Bcl-XL transfected cells; caspase-8 processing in Bcl-2 or Bcl-XL overexpressing cells [2, 3]: cleaved into p43 and p41 intermediates and the active p18 subunit, regardless of Bcl-2 or Bcl-XL overexpression; caspase cleavage in cells sorted into ΔΨm^high and ΔΨm^low ([2]; 0.5 μg/ml Doxorubicin or 10 μg/ml Bet A, 18 h, FIG. 14B-2): CD95-L induction and cleavage of caspase-8 was found in both ΔΨm^high and ΔΨm^low cells; cleavage of FLICE ([2]; 10 μg/ml betulinic acid, 0.5 μg/ml doxorubicin 24 h, FIG. 2B): stimulated FLICE cleavage

How did the “effect of inhibitor on betulinic acid-induced Δψm loss in isolated mitochondria” value [1] turn out when CO[C@H](C/C=C\C=C\CC/C=C/C[C@H](C)/C=C/C(=C\C(=O)O)CC(=O)O)/C(C)=C\C=C(/C)C(=O)O [bongkrekic acid] was run?
Its value is “inhibited”.

Reference: patent publication US6369109B1, “Betulinic acid and derivatives thereof useful for the treatment of neuroectodermal tumor” (Deutsches Krebsforschungszentrum Stiftung des Offentlichen …, priority 1998, dated 2002)
